Experimental findings from ChEMBL document CHEMBL1201862, “PubChem BioAssay data set” (2004) are described below.

SMILES strings stand for the structures.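 96-well plates; 48 h exposure; 5 concentrations. Endpoints by linear interpolation between flanking doses. Not reached: highest tested concentration assigned. The concentration for 50% growth inhibition is given as GI50.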 Activity calls are given as the source filed them. No stated cut-off is given here; in the data, active = GI50 up to about 1.1 µM and inactive = higher. A value given as a limit tells only on which side of the number the result lay.

Test systems include DLD-1; 786-0; CCRF-CEM; OVCAR-3; NCI-H522; CAKI-1; UO-31; SW-620; OVCAR-5; TK-10; UACC-257; NCI-H23; HCT-116; M14; HCT-15; RPMI-8226; HOP-92.
Holding throughout (assay): NCI-60 cell line screen, 48 h

Take `O=C(/C=C/c1ccco1)N1CCN(Cc2ccccc2)CC1`: the GI50 with DLD-1, in the assay on 786-0, with CCRF-CEM, with OVCAR-3, in the assay on NCI-H522 and in the assay on CAKI-1 was > 100 µM (inactive) each time. The GI50 is 96.8 µM (inactive) in the assay on UO-31; > 100 µM (inactive) in the assay with SW-620; > 100 µM (inactive) with OVCAR-5; > 100 µM (inactive) in the assay on TK-10; > 100 µM (inactive) in the assay on UACC-257; > 100 µM (inactive) in the assay on NCI-H23. In addition, the GI50 is > 100 µM (inactive) in the assay on HCT-116; > 100 µM (inactive) with M14; greater than 100 µM in the assay on HCT-15; > 100 µM (inactive) with RPMI-8226; > 100 µM (inactive) in the assay on HOP-92.
For `O=C(NO)c1ccc(O)c(O)c1`, the GI50 in the assay on DLD-1 was > 100 µM (inactive); in the assay with 786-0, > 100 µM (inactive); with CCRF-CEM, 42.1 µM (inactive); in the assay on OVCAR-3, > 100 µM (inactive); in the assay on NCI-H522, 79.4 µM (inactive); in the assay with CAKI-1 it was > 100 µM (inactive). Also, the GI50 in the assay on UO-31 was > 100 µM (inactive); in the assay on SW-620 it was 47.6 µM (inactive); with OVCAR-5 it was 94.6 µM (inactive); with TK-10 it was 98.6 µM (inactive); with UACC-257, > 100 µM (inactive); in the assay with NCI-H23, > 100 µM (inactive). For the same molecule, the GI50 in the assay with HCT-116 is > 100 µM (inactive); with M14, > 100 µM (inactive); in the assay on HCT-15, 98.4 µM; in the assay with RPMI-8226, 32.4 µM (inactive); in the assay with HOP-92, > 100 µM (inactive).
`CN(C)CCN(C)CCC(=O)/C=C/c1ccccc1`: the GI50 in the assay on DLD-1 is 19.5 µM (inactive); in the assay with 786-0, 15.6 µM (inactive); in the assay on CCRF-CEM, 3.48 µM (inactive); in the assay with OVCAR-3, 27.7 µM (inactive); in the assay on NCI-H522, 4.02 µM (inactive); with CAKI-1, 22.7 µM (inactive). For the same molecule, the GI50 in the assay with UO-31 was > 64.7 µM (inactive); in the assay on SW-620, 18.5 µM (inactive); in the assay on OVCAR-5 it was > 60.1 µM (inactive); in the assay on TK-10, 25.9 µM (inactive); with UACC-257, 22.2 µM (inactive); in the assay on NCI-H23 it was 27.1 µM (inactive). Further, the GI50 in the assay with HCT-116 is 17.1 µM (inactive); with M14 it was 20.9 µM (inactive); in the assay with HCT-15, 21.8 µM; in the assay on RPMI-8226 it was 2.16 µM (inactive); in the assay with HOP-92 it was 25.5 µM (inactive).
Take `Cc1cc(N(CCC#N)CCC#N)ccc1CC1N=C(c2ccccc2)OC1=O` (stereo not drawn): the GI50 with DLD-1, with 786-0, in the assay with CCRF-CEM, with OVCAR-3, in the assay with NCI-H522 and in the assay with CAKI-1 was > 100 µM (inactive) in each case. Besides, the GI50 with UO-31, in the assay with SW-620, in the assay with OVCAR-5, with TK-10, in the assay on UACC-257 and in the assay with NCI-H23 was > 100 µM (inactive) each time. Also, the GI50 was > 100 µM (inactive) in the assay with HCT-116; > 100 µM (inactive) with M14; greater than 100 µM in the assay on HCT-15; > 100 µM (inactive) in the assay with RPMI-8226; > 100 µM (inactive) in the assay on HOP-92.
With `CCCCCC(=O)OC[n+]1ccc2c(C)c3[nH]c4ccccc4c3c(C)c2c1`, the GI50 in the assay on DLD-1 is 0.45 µM (active); in the assay with 786-0, 0.405 µM (active); in the assay with OVCAR-3, 1.19 µM (inactive); in the assay on NCI-H522, 1.49 µM (inactive); in the assay with CAKI-1 it was 1.82 µM (inactive); in the assay with UO-31, 2.65 µM (inactive). In addition, the GI50 in the assay on SW-620 was 0.446 µM (active); in the assay with OVCAR-5, 1.28 µM (inactive); in the assay with TK-10, 3.08 µM (inactive); in the assay with UACC-257, 1.57 µM (inactive); in the assay with NCI-H23, 0.857 µM (active); in the assay with HCT-116, 0.373 µM (active). In addition, the GI50 in the assay on M14 is 1.42 µM (inactive); with HCT-15, 0.389 µM; in the assay with RPMI-8226, 0.288 µM (active); in the assay with HOP-92 it was 2.48 µM (inactive).
Turning to `CC(C)(Oc1ccc(C(=O)c2ccc(Cl)cc2)cc1Cl)C(=O)Nc1c(Cl)cccc1Cl`, the GI50 was > 100 µM (inactive) in the assay on DLD-1; > 100 µM (inactive) in the assay with 786-0; > 100 µM (inactive) in the assay with CCRF-CEM; > 100 µM (inactive) with OVCAR-3; 12.3 µM (inactive) in the assay with NCI-H522; > 100 µM (inactive) with CAKI-1. For the same molecule, the GI50 was 23 µM (inactive) with UO-31; > 100 µM (inactive) with SW-620; > 100 µM (inactive) in the assay with OVCAR-5; > 100 µM (inactive) in the assay on TK-10; > 100 µM (inactive) with UACC-257; > 100 µM (inactive) in the assay with NCI-H23. Moreover, the GI50 in the assay on HCT-116 was > 100 µM (inactive); in the assay on M14 it was > 100 µM (inactive); in the assay on HCT-15, greater than 100 µM; with RPMI-8226, > 100 µM (inactive); in the assay with HOP-92, > 100 µM (inactive).
As to `CC(=O)c1ccc(N2C(=O)C3c4[nH]c5ccccc5c4C4CCC(C(C)(C)C)CC4C3C2=O)cc1` (stereo not drawn), the GI50 in the assay on DLD-1 is 33.2 µM (inactive); with 786-0, 18.6 µM (inactive); with CCRF-CEM it was 36.3 µM (inactive); with NCI-H522 it was 24.4 µM (inactive); with UO-31 it was 43.5 µM (inactive); with SW-620, 21.7 µM (inactive). Moreover, the GI50 in the assay on UACC-257 was 35.2 µM (inactive); with NCI-H23, 19.2 µM (inactive); in the assay with HCT-116 it was 16.6 µM (inactive); in the assay on M14 it was 23.9 µM (inactive); in the assay on HCT-15, 29.3 µM; with RPMI-8226, 23.3 µM (inactive). Moreover, the GI50 in the assay on HOP-92 was 20.8 µM (inactive).
Turning to `C=CCC(N(C)C(=O)[C@H](Cc1ccccc1)NC(=O)OCc1ccccc1)P(=O)(Oc1ccccc1)Oc1ccccc1` (stereo partly drawn), the GI50 with DLD-1 was > 100 µM (inactive); in the assay with 786-0, > 100 µM (inactive); in the assay with CCRF-CEM, 8.51 µM (inactive); with OVCAR-3, > 100 µM (inactive); in the assay with NCI-H522, > 100 µM (inactive); in the assay with UO-31, 5.5 µM (inactive). Also, the GI50 in the assay on SW-620 is > 100 µM (inactive); with TK-10, > 100 µM (inactive); in the assay on UACC-257, > 100 µM (inactive); in the assay on NCI-H23 it was > 100 µM (inactive); in the assay with HCT-116, 5.9 µM (inactive); with M14, > 100 µM (inactive). The GI50 in the assay on RPMI-8226 was 6.81 µM (inactive); in the assay on HOP-92, 29 µM (inactive).
Consider `Cc1nc(-n2nc(-c3ccccc3)cc2-c2ccccc2)sc1C(=O)/C=C/c1cccc([N+](=O)[O-])c1`, for which the GI50 in the assay on DLD-1 was 12 µM (inactive); in the assay on 786-0 it was 12.7 µM (inactive); with CCRF-CEM, 8.32 µM (inactive); with OVCAR-3, 3.03 µM (inactive); in the assay with NCI-H522, 13.8 µM (inactive); in the assay on CAKI-1, 16.7 µM (inactive). Besides, the GI50 in the assay with UO-31 was 11.6 µM (inactive); with SW-620 it was > 10 µM (inactive); in the assay with OVCAR-5 it was 23.7 µM (inactive); with TK-10, 36 µM (inactive); in the assay with UACC-257, 22.5 µM (inactive); in the assay on NCI-H23 it was 17.2 µM (inactive). The GI50 was 16.8 µM in the assay with HCT-15, 4.76 µM (inactive) with RPMI-8226 and 22.9 µM (inactive) in the assay on HOP-92.
